The values that follow are results of earlier work, collected in PubChem BioAssay AID1259409 (Chemical Carcinogenesis Research Information System (CCRIS), 2018).

The structures appear in SMILES notation.

This data set relates to rodent chemically induced tumor inhibition, incidence and multiplicity. In words: CCRIS tumor inhibitor studies. The conditions noted are these: Dose [Inhibitor]: 0, Route [Inhibitor]: ORAL, Species: RAT, Promoter: NONE USED.

Regarding `CCCCCCCCCCCCC(=O)COC1=C(O)C(=O)O[C@@H]1[C@@H](O)CO`, the “tumour outcome (control, treated, inhibition, significance)” value is reported as 2/18 (11%), 1/20 (5%), 55%, not significant (Carcinogen: 2-AMINO-1-METHYL-6-PHENYLIMIDAZO[4,5-B]PYRIDINE, 105650-23-5, 1% IN DIET FOR 52 WK CONCURRENTLY WITH CARCINOGEN TREATMENT (STUDY DURATION: 52 WK), Strain/Sex: F344/FEMALE, Target Tissue: Type of Lesion: LARGE INTESTINE: ADENOMA OR CARCINOMA, Dose [Carcinogen]: 0.02% IN DIET FOR 52 WK); 8/20 (40%), 5/21 (24%), 40%, not significant (Carcinogen: 2-AMINO-1-METHYL-6-PHENYLIMIDAZO[4,5-B]PYRIDINE, 105650-23-5, 1% IN DIET FOR 52 WK CONCURRENTLY WITH CARCINOGEN TREATMENT (STUDY DURATION: 52 WK), Strain/Sex: F344/FEMALE, Target Tissue: Type of Lesion: MAMMARY GLAND: ADENOCARCINOMA, Dose [Carcinogen]: 0.02% IN DIET FOR 52 WK); 7%, 0%, 100%, not significant (Carcinogen: DIETHYLNITROSAMINE, 55-18-5, N-METHYL-N-NITROSOUREA, 684-93-5, N-BUTYL-N-(4-HYDROXYBUTYL)NITROSAMINE, 3817-11-6, DIMETHY, Carcinogen: DIETHYLNITROSAMINE, 55-18-5, N-METHYL-N-NITROSOUREA, 684-93-5, N-BUTYL-N-(4-HYDROXYBUTYL)NITROSAMINE, 3817-11-6, DIMETHY, 1% IN THE DIET FOR 24 WK BEGINNING 1 D POST CARCINOGEN TREATMENT (STUDY DURATION: 28 WK), Strain/Sex: F344/MALE, Target Tissue: Type of Lesion: LARGE INTESTINE: CARCINOMA, Dose [Carcinogen]: 100 MG/KG BW DEN ONCE FOLLOWED BY 20 MG/KG BW MNU 4 TIMES AND 0.05% BBN IN DRINKING WATER DURING FIRST 2 WK THEN 40 MG/K); 7%, 0%, 100%, not significant (Carcinogen: DIETHYLNITROSAMINE, 55-18-5, N-METHYL-N-NITROSOUREA, 684-93-5, N-BUTYL-N-(4-HYDROXYBUTYL)NITROSAMINE, 3817-11-6, DIMETHY, Carcinogen: DIETHYLNITROSAMINE, 55-18-5, N-METHYL-N-NITROSOUREA, 684-93-5, N-BUTYL-N-(4-HYDROXYBUTYL)NITROSAMINE, 3817-11-6, DIMETHY, 1% IN THE DIET FOR 24 WK BEGINNING 1 DAY POST CARCINOGEN TREATMENT (STUDY DURATION: 28 WK ), Strain/Sex: F344/MALE, Target Tissue: Type of Lesion: URINARY BLADDER: CARCINOMA, Dose [Carcinogen]: 100 MG/KG BW DEN ONCE FOLLOWED BY 20 MG/KG BW MNU 4 TIMES AND 0.05% BBN IN DRINKING WATER DURING FIRST 2 WK THEN 40 MG/K); 27%, 13%, 52%, not significant (Carcinogen: DIETHYLNITROSAMINE, 55-18-5, N-METHYL-N-NITROSOUREA, 684-93-5, N-BUTYL-N-(4-HYDROXYBUTYL)NITROSAMINE, 3817-11-6, DIMETHY, Carcinogen: DIETHYLNITROSAMINE, 55-18-5, N-METHYL-N-NITROSOUREA, 684-93-5, N-BUTYL-N-(4-HYDROXYBUTYL)NITROSAMINE, 3817-11-6, DIMETHY, 1% IN THE DIET FOR 24 WK BEGINNING 1 DAY POST CARCINOGEN TREATMENT (STUDY DURATION: 28 WK), Strain/Sex: F344/MALE, Target Tissue: Type of Lesion: LARGE INTESTINE: ADENOMA, Dose [Carcinogen]: 100 MG/KG BW DEN ONCE FOLLOWED BY 20 MG/KG BW MNU 4 TIMES AND 0.05% BBN IN DRINKING WATER DURING FIRST 2 WK THEN 40 MG/K); 33%, 20%, 39%, not significant (Carcinogen: DIETHYLNITROSAMINE, 55-18-5, N-METHYL-N-NITROSOUREA, 684-93-5, N-BUTYL-N-(4-HYDROXYBUTYL)NITROSAMINE, 3817-11-6, DIMETHY, Carcinogen: DIETHYLNITROSAMINE, 55-18-5, N-METHYL-N-NITROSOUREA, 684-93-5, N-BUTYL-N-(4-HYDROXYBUTYL)NITROSAMINE, 3817-11-6, DIMETHY, 1% IN THE DIET FOR 24 WK BEGINNING 1 DAY POST CARCINOGEN TREATMENT (STUDY DURATION: 28 WK), Strain/Sex: F344/MALE, Target Tissue: Type of Lesion: SMALL INTESTINE: ADENOMA, Dose [Carcinogen]: 100 MG/KG BW DEN ONCE FOLLOWED BY 20 MG/KG BW MNU 4 TIMES AND 0.05% BBN IN DRINKING WATER DURING FIRST 2 WK THEN 40 MG/K). Moreover, the “tumour outcome (control, treated, inhibition, significance)” value is 7%, 20%, -185%, not significant (Carcinogen: DIETHYLNITROSAMINE, 55-18-5, N-METHYL-N-NITROSOUREA, 684-93-5, N-BUTYL-N-(4-HYDROXYBUTYL)NITROSAMINE, 3817-11-6, DIMETHY, Carcinogen: DIETHYLNITROSAMINE, 55-18-5, N-METHYL-N-NITROSOUREA, 684-93-5, N-BUTYL-N-(4-HYDROXYBUTYL)NITROSAMINE, 3817-11-6, DIMETHY, 1% IN THE DIET FOR 24 WK BEGINNING 1 DAY POST CARCINOGEN TREATMENT (STUDY DURATION: 28 WK), Strain/Sex: F344/MALE, Target Tissue: Type of Lesion: SMALL INTESTINE: CARCINOMA, Dose [Carcinogen]: 100 MG/KG BW DEN ONCE FOLLOWED BY 20 MG/KG BW MNU 4 TIMES AND 0.05% BBN IN DRINKING WATER DURING FIRST 2 WK THEN 40 MG/K) and 7%, 0%, 100%, not significant (Carcinogen: DIETHYLNITROSAMINE, 55-18-5, N-METHYL-N-NITROSOUREA, 684-93-5, N-BUTYL-N-(4-HYDROXYBUTYL)NITROSAMINE, 3817-11-6, DIMETHY, Carcinogen: DIETHYLNITROSAMINE, 55-18-5, N-METHYL-N-NITROSOUREA, 684-93-5, N-BUTYL-N-(4-HYDROXYBUTYL)NITROSAMINE, 3817-11-6, DIMETHY, 1% IN THE DIET FOR 24 WK BEGINNING 1 DAY POST CARCINOGEN TREATMENT (STUDY DURATION: 28 WK), Strain/Sex: F344/MALE, Target Tissue: Type of Lesion: THYROID: CARCINOMA, Dose [Carcinogen]: 100 MG/KG BW DEN ONCE FOLLOWED BY 20 MG/KG BW MNU 4 TIMES AND 0.05% BBN IN DRINKING WATER DURING FIRST 2 WK THEN 40 MG/K).
